Assay results reported in patent publication US20240391862A1, “(1,4,5-TRISUBSTITUTED-1H-PYRAZOL-3-YL)OXY-2-ALKOXY ALKYL ACIDS AND THEIR DERIVATIVES, THEIR SALTS AND THEIR USE AS HERBICIDAL AGENTS” (Bayer AKtiengesellschaft, priority 2021, published 2024).

How the values were obtained:
DIGSA = test: Post-emergence herbicidal effect, greenhouse pot test; format: in vivo, Digitaria sanguinalis; details: visual rating about 3 weeks after treatment
How it was run: (§1)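 Greenhouse pot test: weeds and crops sown in sandy loam, sprayed post-emergence at one-leaf stage (2–3 weeks after sowing) with WP or EC formulations plus 0.5% additive at 600 l/ha water, rates 20–320 g/ha. Visual rating about 3 weeks later versus untreated controls (100% = dead, 0% = as control).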

SETVI = test: as above; format: in vivo, Setaria viridis
How it was run: as §1

VIOTR = test: as above; format: in vivo, Viola tricolor
How it was run: as §1

ZEAMX = test: Post-emergence herbicidal effect and crop plant compatibility, greenhouse pot test; format: in vivo, Zea mays; details: one-leaf stage, rated visually after about 3 weeks vs untreated controls
How it was run: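 Sandy loam pots, greenhouse. One-leaf stage (2–3 wk after sowing) foliar spray; WP/EC in water + 0.5% additive, 600 l/ha; 20–320 g/ha. Visual score ~3 wk, 0–100% vs untreated.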

KCHSC = test: Post-emergence herbicidal effect, greenhouse pot test; format: in vivo; details: 320 g/ha
How it was run: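 Greenhouse plants in sandy loam, sprayed post-emergence at the one-leaf stage (2–3 weeks after sowing) with WP or EC formulations in water plus 0.5% additive at 600 l/ha. Rates 20 to 320 g/ha. Activity rated visually after about 3 weeks against untreated controls (0% like control, 100% dead).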

PHBPU = test: as above; format: in vivo, Ipomoea purpurea
How it was run: as §1

MATIN = test: as above; format: in vivo, Tripleurospermum inodorum
How it was run: as §1

POLCO = test: as above; format: in vivo, Fallopia convolvulus; details: 320 g/ha
How it was run: as §1

AMARE = test: as above; format: in vivo, Amaranthus retroflexus; details: visual rating about 3 weeks after treatment
How it was run: as §1

AVEFA = test: as above; format: in vivo, Avena fatua; details: visual rating about 3 weeks after treatment
How it was run: as §1

ALOMY = test: as above; format: in vivo, Alopecurus myosuroides; details: 320 g/ha, visual rating about 3 weeks after treatment
How it was run: as §1

VERPE = test: as above; format: in vivo, Veronica persica
How it was run: as §1

LOLRI = test: as above; format: in vivo, Lolium rigidum
How it was run: as §1

ABUTH = test: as above; format: in vivo, Abutilon theophrasti; details: visual rating about 3 weeks after treatment
How it was run: as §1

ECHCG = test: as above; format: in vivo, Echinochloa crus-galli
How it was run: as §1

SMILES | Post-emergence effect against DIGSA (DIGSA; 80 g/ha) | Post-emergence effect against DIGSA (DIGSA; 320 g/ha) | Post-emergence effect against SETVI in % (SETVI; 80 g/ha) | Post-emergence effect against SETVI in % (SETVI; 320 g/ha) | Post-emergence effect against VIOTR in % (VIOTR; 80 g/ha) | Post-emergence effect against VIOTR in % (VIOTR; 320 g/ha) | Post-emergence effect at 20 g/ha against ZEAMX in % (ZEAMX) | Post-emergence effect against KCHSC in % (KCHSC) | Post-emergence effect against PHBPU in % (PHBPU; 80 g/ha) | Post-emergence effect against PHBPU in % (PHBPU; 320 g/ha) | Post-emergence effect against MATIN in % (MATIN; 80 g/ha) | Post-emergence effect against MATIN in % (MATIN; 320 g/ha) | Post-emergence effect against POLCO in % (POLCO) | Post-emergence effect against AMARE (AMARE; 320 g/ha) | Post-emergence effect against AVEFA (AVEFA; 320 g/ha) | Post-emergence effect against ALOMY (ALOMY) | Post-emergence effect against VERPE in % (VERPE; 80 g/ha) | Post-emergence effect against VERPE in % (VERPE; 320 g/ha) | Post-emergence effect against LOLRI in % (LOLRI; 320 g/ha) | Post-emergence effect against ABUTH (ABUTH; 20 g/ha) | further results
COC(=O)CCOC(=O)C(OC)Oc1nn(-c2ccccc2F)c(-c2ccc(F)nc2)c1C1CC1 (single isomer, unassigned) [Example I-74] | 80% | 90% | 90% | 90% | 90% | 90% | 0% | 90% | 90% | 90% | 80% | 80% | 90% | 80% | 90% | 90% | 90% | 90% | 90% | 80% | Post-emergence effect against VIOTR in % (VIOTR; 20 g/ha): 80%; Post-emergence effect against PHBPU in % (PHBPU; 20 g/ha): 80%; Post-emergence effect against AMARE (AMARE; 20 g/ha): 80%; Post-emergence effect against AMARE (AMARE; 80 g/ha): 80%; Post-emergence effect against AVEFA (AVEFA; 80 g/ha): 90%; Post-emergence effect against ABUTH (ABUTH; 80 g/ha): 80%; Post-emergence effect against ABUTH (ABUTH; 320 g/ha): 90%; Post-emergence effect against ECHCG (ECHCG; 20 g/ha, visual rating about 3 weeks after treatment): 90%; Post-emergence effect against ECHCG in % (ECHCG; 80 g/ha): 90%; Post-emergence effect against ECHCG in % (ECHCG; 320 g/ha): 90%
COC(=O)CCOC(=O)C(OC)Oc1nn(-c2ccccc2F)c(-c2ccc(F)nc2)c1C1CC1 (single isomer, unassigned) [Example I-75] | 80% | 80% | 80% | 90% | 80% | 90% | 0% | 90% | 80% | 90% | 80% | 80% | 80% | 90% | 90% | 80% | 80% | 90% | 90% | 80% | Post-emergence effect at 80 g/ha against ZEAMX in % (ZEAMX; 80 g/ha): 0%; Post-emergence effect against LOLRI in % (LOLRI; 80 g/ha): 80%; Post-emergence effect against ABUTH (ABUTH; 80 g/ha): 80%; Post-emergence effect against ABUTH (ABUTH; 320 g/ha): 90%; Post-emergence effect against ECHCG in % (ECHCG; 80 g/ha): 90%; Post-emergence effect against ECHCG in % (ECHCG; 320 g/ha): 90%
